Source: ChEMBL document CHEMBL1201862, “PubChem BioAssay data set” (2004)
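The compound was tested at five concentrations on cells cultured in 96-well plates, with a 48-hour exposure period. The concentration for 50% growth inhibition is given as GI50.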 Calls of active or inactive are those of the source. Rule as the data show it: active = GI50 up to about 1.1 µM and inactive = higher.

Tests used:
Test in all cases: NCI tumour cell line growth inhibition, 48 h
SK-MEL-2 = tested on: SK-MEL-2
DU-145 = tested on: DU-145
RPMI-8226 = tested on: RPMI-8226
MDA-N = tested on: MDA-N
NCI-H226 = tested on: NCI-H226
SF-295 = tested on: SF-295
EKVX = tested on: EKVX
CAKI-1 = tested on: CAKI-1
Hs-578T = tested on: Hs-578T
IGROV-1 = tested on: IGROV-1
MCF7 = tested on: MCF7
RXF 393 = tested on: RXF 393
HOP-62 = tested on: HOP-62
K562 = tested on: K562
SN12C = tested on: SN12C
UO-31 = tested on: UO-31
NCI-H23 = tested on: NCI-H23
MOLT-4 = tested on: MOLT-4
786-0 = tested on: 786-0
HCC 2998 = tested on: HCC 2998

Measured: GI50

CNC(=O)C1OC(n2cnc3c(NCc4cccc(I)c4)nc(Cl)nc32)C(O)C1O (stereo not given)
inactive: SK-MEL-2 14.7 µM | DU-145 19.7 µM | RPMI-8226 18.9 µM | MDA-N 20.7 µM | NCI-H226 7.69 µM | SF-295 18.7 µM | EKVX 13.5 µM | CAKI-1 19.3 µM | Hs-578T 1.55 µM | IGROV-1 14.1 µM | MCF7 12.8 µM | RXF 393 10.4 µM | HOP-62 12.7 µM | K562 12.9 µM | SN12C 16.6 µM | UO-31 11.9 µM | NCI-H23 12.7 µM | MOLT-4 14.2 µM | 786-0 18.6 µM

c1ccc(CN2CCC(CNc3ncnc4ccccc34)C2)cc1 (stereo not given)
inactive: SK-MEL-2 38.6 µM | DU-145 > 100 µM | RPMI-8226 9.02 µM | MDA-N 47.1 µM | NCI-H226 76.9 µM | SF-295 51.4 µM | EKVX 25.1 µM | CAKI-1 > 100 µM | Hs-578T 58.5 µM | IGROV-1 > 100 µM | MCF7 50.2 µM | RXF 393 > 100 µM | HOP-62 > 100 µM | K562 23 µM | SN12C 98.6 µM | UO-31 63.1 µM | NCI-H23 40.3 µM | MOLT-4 34.4 µM | 786-0 > 100 µM

CC(C)C(/N=C/c1ccccc1O)C(=O)O (stereo not given)
inactive: SK-MEL-2 20.6 µM | DU-145 > 100 µM | RPMI-8226 > 100 µM | MDA-N > 100 µM | NCI-H226 > 100 µM | SF-295 > 100 µM | EKVX > 100 µM | CAKI-1 > 100 µM | Hs-578T 59.2 µM | IGROV-1 > 100 µM | MCF7 > 100 µM | HOP-62 > 100 µM | K562 > 100 µM | SN12C > 100 µM | UO-31 > 100 µM | NCI-H23 > 100 µM | MOLT-4 > 100 µM | 786-0 > 100 µM

COc1cc2c(cc1OC)CN1CCCc3cc(OC)c(OC)cc3C1C2 (stereo not given)
inactive: DU-145 76 µM | MDA-N 17.3 µM | NCI-H226 27.9 µM | HCC 2998 33.7 µM | SF-295 12.9 µM | EKVX 44 µM | CAKI-1 38.6 µM | Hs-578T 40.8 µM | IGROV-1 22 µM | MCF7 31 µM | RXF 393 29.6 µM | HOP-62 25 µM | K562 48.3 µM | SN12C 42.7 µM | UO-31 43.1 µM | NCI-H23 52.4 µM | MOLT-4 88.1 µM | 786-0 33.2 µM

COC(=O)[C@H](C)[C@@H]1CC[C@](C)(CCC2=C(C)CCCC2(C)C)OO1
inactive: SK-MEL-2 > 25 µM | DU-145 > 25 µM | RPMI-8226 > 25 µM | MDA-N > 25 µM | HCC 2998 > 25 µM | SF-295 > 25 µM | EKVX > 25 µM | CAKI-1 > 25 µM | Hs-578T > 25 µM | IGROV-1 > 25 µM | MCF7 > 25 µM | RXF 393 > 25 µM | HOP-62 > 25 µM | K562 14.3 µM | SN12C > 25 µM | UO-31 23.7 µM | NCI-H23 > 25 µM | MOLT-4 > 25 µM | 786-0 > 25 µM

COc1cc(/C=C2\N=C(c3ccccc3)N(c3nc4c(OC)ccc(OC)c4s3)C2=O)cc(OC)c1OC
inactive: SK-MEL-2 > 100 µM | DU-145 > 100 µM | RPMI-8226 43 µM | MDA-N 35.8 µM | HCC 2998 > 100 µM | SF-295 > 100 µM | EKVX > 100 µM | CAKI-1 > 100 µM | Hs-578T > 100 µM | IGROV-1 > 100 µM | MCF7 34.3 µM | RXF 393 85.1 µM | HOP-62 > 100 µM | K562 34.8 µM | SN12C > 100 µM | UO-31 > 100 µM | NCI-H23 > 100 µM | MOLT-4 35.2 µM | 786-0 55 µM

CCCCCCCC1(N=[N+]=[N-])C(=O)Nc2ccccc2C1=O (stereo not given)
inactive: SK-MEL-2 16.8 µM | DU-145 14.9 µM | RPMI-8226 25.5 µM | MDA-N 19.8 µM | HCC 2998 20.6 µM | SF-295 17.3 µM | CAKI-1 14.7 µM | Hs-578T 17.5 µM | IGROV-1 12.1 µM | MCF7 19.1 µM | RXF 393 12.6 µM | HOP-62 17.7 µM | K562 16.4 µM | SN12C 18.7 µM | UO-31 12.7 µM | NCI-H23 18.2 µM | MOLT-4 10.4 µM | 786-0 16.6 µM
